Results on 14 compounds are retold here after patent US11473153B2, “Device and methods of using device for separation of bacteria from complex samples” (priority 2014, dated 2022).

One test has as its system bacteria. The note with it: cited from earlier work.
The subject of test [1] is S. typhimurium. The note with it: Eth20%/Media + Salmonella/Media, 1.5 ml device.
The subject of a further test is E. coli O157H7. To be noted: Eth20%/GroundMeat + O157H7/Media, 30 min, 1.5 ml device.
The test system of test [2] is unspecific bacteria grown from dirt.
The subject of test [3] is S. typhimurium. Briefly: Microliter-scale sample chamber device, separation run (FIG. 12). The class given is cell-based. To be noted: 30 minutes. How it is done: Experimental and control separation runs were performed in the device and results recorded as disclosed below. FIG. 12 depicts an experimental run on the device in which 2 mM of alpha-methylaspartate (chemo-attractant) was diluted in chemotaxis buffer was introduced in the extraction chamber. […] Deionized water was introduced in the repellent chamber. After 30 minutes, the contents of each chamber was recovered and the amount of bacteria in each chamber counted.

Test [4] relates to S. typhimurium. In words: Four-channel membrane microfluidic chip, separation by chemoattractant (FIG. 9B). It is filed as cell-based. The source says:
FIG. 9A depicts a diagram of a microfluidic chip with four channels that overlap in the vertical direction, with each channel being separated by a semipermeable membrane. Each channel has an inlet/outlet on either end of the chip, each channel can be filled using regular pipettes. The four channels overlap in the vertical direction to maximize contact are amongst channels and optimizes the time required for the chemical gradients to form. The membranes between the channels prevent fluid flow while allowing the chemical gradients to form and bacteria to migrate between the channels. […] The contents of each channel was extracted after approximately 30 minutes and the bacterial density measured using a cell counter (left hand bar in each column). […] Control experiments were also performed to evaluate random dispersion of bacteria to channels 1 and 3 filled with buffer; very few of the bacteria moved away from channel 2 without the present of the chemoattractant (middle bars in each column).

Where two headings read alike, the source gives them in different places.

As to `OC[C@H]1O[C@H](O[C@H]2[C@H](O)[C@@H](O)C(O)O[C@@H]2CO)[C@H](O)[C@@H](O)[C@@H]1O` (mixture of isomers) [Maltose], in the test on bacteria, the “Chemoattractant (bacteria for which the substance is one)” value (from here on “Chemoattractant”) is given as “E. coli” and the “Chemorepellent (bacteria for which the substance is one)” value (“Chemorepellent” for short) is given as “(no effect on S. typhimurium)”.
For `CC(=O)O` [Acetate], in the test on bacteria, the “Chemoattractant” value was “C. vinosum” and the “Chemorepellent” value is given as “E. coli, S. typhimurium”.
Regarding `O=C(O)c1ccccc1` [Benzoate], in the test on bacteria, the “Chemoattractant” value is recorded as “P. putida” and the “Chemorepellent” value was “E. coli, S. typhimurium”.
`O=C(O)CC(O)(CC(=O)O)C(=O)O` [Citrate]: in the test on bacteria, the “Chemoattractant” value is “S. typhimurium” and the “Chemorepellent” value is given as “(no effect on E. coli)”.
As to `[Co+2]` [Co^2+], in the test with bacteria, the “Chemoattractant” value was “(no effect on S. typhimurium)” and the “Chemorepellent” value is recorded as “E. coli”.
For the compound `CCO` [Eth20%, Ethanol], the “E: extraction efficiency” value with S. typhimurium [1] (25 min) was found to be 76.4% + −8%; with S. typhimurium [1] (30 min) it was 87.9% + −7%; in the test on E. coli O157H7 (Meat diluted 1:1), 77.60%; in the test with E. coli O157H7 (Meat diluted 1:2), 109.80%; with E. coli O157H7 (Meat diluted 1:3) it was 57.00%. Further, in test [2] (50% ethanol chemorepellent gradient, FIG. 4B/4C), the “movement of bacteria over time” value is listed as “clearly seen moving away from the ethanol”. Also, the “state of bacteria next to the maximum concentration of ethanol” value in test [2] (50% ethanol chemorepellent in horizontal channel, FIG. 4B) is “non-motile and putatively dead”.
As for `[H+]` [H^+], in the test on bacteria, the “Chemoattractant” value is on record as “R. sphaeroids” and the “Chemorepellent” value is reported as “E. coli, C. vinosum”.
Consider `CC(C)C[C@H](N)C(=O)O` [Leucine], for which, in the test on bacteria, the “Chemoattractant” value is listed as “B. subtilis” and the “Chemorepellent” value is given as “E. coli, S. typhimurium”.
As for `[Ni+2]` [Ni^2], in the test with bacteria, the “Chemoattractant” value was “(no effect on S. typhimurium)” and the “Chemorepellent” value is listed as “E. coli”.
Regarding `O` [OH^−], in the test on bacteria, the “Chemoattractant” value is recorded as “R. sphaeroids” and the “Chemorepellent” value is reported as “E. coli, C. vinosum”.
For `Oc1ccccc1` [Phenol], in the test with bacteria, the “Chemoattractant” value is on record as “E. coli” and the “Chemorepellent” value was “S. typhimurium”.
In the case of `N[C@@H](Cc1c[nH]c2ccccc12)C(=O)O` [Tryptophan], in the test with bacteria, the “Chemoattractant” value is reported as “B. subtilis, C. vinosum” and the “Chemorepellent” value is “E. coli, S. typhimurium”.
Turning to `CC(C)[C@H](N)C(=O)O` [Valine], in the test on bacteria, the “Chemoattractant” value is on record as “B. subtilis” and the “Chemorepellent” value is on record as “E. coli, S. typhimurium”.
For `CC(N)(CC(=O)O)C(=O)O` (stereo not drawn) [α-methyl aspartate], the “concentration of bacteria in the extraction chamber normalized to the initial concentration” value with S. typhimurium [3] (2 mM in chemotaxis buffer in extraction chamber, sample chamber about 110 μL) is “about 2 times higher than the initial concentration”. For the same compound, in the test on S. typhimurium [3] (2 mM in extraction chamber, deionized water in repellent chamber), the “bacteria in the repellent chamber” value is “no bacteria were found”. In addition, the “bacterial density per channel (cell counter)” value with S. typhimurium [4] (2 mM in channel 1, S. typhimurium in channel 2, buffer in channel 3, approximately 30 minutes) was “most bacteria crossed over to the channel containing maximal concentration of chemoattractant”. For the same compound, the “bacterial density per channel, gravity control” value in the test with S. typhimurium [4] (buffer and chemoattractant introduced through the opposite channels) is listed as “the results were the same”.
